The term EC50 denotes the concentration giving half of the maximal effect. Broadly, the AC50 is the concentration giving half of the maximal activity seen. A word on the IC50: it is the concentration that inhibits the measured activity by half.

Activity calls are given as the source filed them.

Here are results for twelve compounds from ChEMBL document CHEMBL1201862, “PubChem BioAssay data set” (2004).

Assay [1] addresses G-protein coupled receptor 55 (Homo sapiens, UniProt Q9Y2T6). Put plainly: GPR55 agonists via beta-arrestin recruitment, primary screen, imaging, U2OS cells, beta-arrestin-GFP redistribution (AID 1961). It is filed as functional.
Assay [2] has as its target T1, CAAX prenyl protease 2 (Saccharomyces cerevisiae S288c, UniProt Q03530).
T1 sequence (Q03530 whole entry): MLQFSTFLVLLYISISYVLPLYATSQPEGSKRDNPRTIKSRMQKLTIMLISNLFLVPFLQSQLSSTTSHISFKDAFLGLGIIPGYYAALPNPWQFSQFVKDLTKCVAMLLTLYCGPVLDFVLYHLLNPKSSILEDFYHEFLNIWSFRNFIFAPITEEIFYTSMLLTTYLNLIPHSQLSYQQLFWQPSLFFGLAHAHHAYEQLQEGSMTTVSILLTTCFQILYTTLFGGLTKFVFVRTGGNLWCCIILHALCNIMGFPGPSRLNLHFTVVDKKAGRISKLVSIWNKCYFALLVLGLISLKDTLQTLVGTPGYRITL
It is filed as biochemical.

In assay [3] the target is Trypsin (Sus scrofa, UniProt P00761). Put plainly: porcine trypsin inhibitors, dose response, selectivity assay for Rce1 protease inhibitor project, biochemical, quenched peptide fluorescence, cherry-pick (AID 488789).
The test system of assay [4] is Vero. Nature of the assay: Vero cell cytotoxicity, cytotoxicity control for flavivirus capping enzyme inhibitors (AID 588742). It is filed as functional. As to conditions: Chlorocebus sabaeus.
Assay [5] concerns the target Genome polyprotein (dengue virus type 2, UniProt P29990). Nature of the assay: Dengue-2 NS5 methyltransferase inhibitors, primary screen, biochemical, confirmation dose response (AID 588689). It counts as functional.
In assay [6] the target is DNA dC->dU-editing enzyme APOBEC-3G (Homo sapiens, UniProt Q9HC16). Nature of the assay: Dose Response confirmation of small molecule APOBEC3G DNA Deaminase Inhibitors via a fluorescence-based single-stranded DNA deaminase assay. [Related pubchem assays (depositor defined):AID493012, AID493028]. It is filed as functional.
The target in assay [7] is DNA dC->dU-editing enzyme APOBEC-3A (Homo sapiens, UniProt P31941). Nature of the assay: APOBEC3A DNA deaminase inhibitors, dose response, biochemical (AID 504722). It counts as functional.
Assay [8] concerns the target T2, Cysteine protease ATG4B (Homo sapiens, UniProt Q9Y4P1).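 Further: Fluorescence-based dose-response confirmation assay measuring inhibition of ATG4B activity.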
T2 sequence (Q9Y4P1 whole entry): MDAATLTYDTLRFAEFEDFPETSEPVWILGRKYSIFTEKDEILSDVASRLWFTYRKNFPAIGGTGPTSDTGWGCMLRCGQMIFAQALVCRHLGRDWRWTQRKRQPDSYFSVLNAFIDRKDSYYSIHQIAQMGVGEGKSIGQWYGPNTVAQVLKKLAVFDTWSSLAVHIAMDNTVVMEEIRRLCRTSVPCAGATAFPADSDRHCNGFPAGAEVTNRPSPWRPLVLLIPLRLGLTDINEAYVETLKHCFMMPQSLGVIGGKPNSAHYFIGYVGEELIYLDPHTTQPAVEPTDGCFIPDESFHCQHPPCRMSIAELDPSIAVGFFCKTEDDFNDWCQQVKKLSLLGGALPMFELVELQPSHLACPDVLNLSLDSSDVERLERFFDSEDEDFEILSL
It is filed as functional.

The target in assay [9] is Phospholipase A2 (Homo sapiens, UniProt P04054). It counts as functional.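 Further: confirmatory dose-response counterscreen on phospholipase A2, testing hits that came from an ultra-high-throughput screen for ATG4B inhibitors.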
Assay [10] in a line: control 3'UTR Renilla luciferase suppression, dose response, counter-screen for Shn3 inhibitor project, cell-based, Clone20-Shn3RL, cherry-picked (AID 624133). It is filed as functional. (In general: Counterscreens check selectivity or assay interference.)
The subject of assay [11] is INS1. Put plainly: beta cell apoptosis inhibitors, cytokine rescue, dose response, luminescence, retest (AID 449756).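 Further: cell death triggered by IL-1 beta plus TNF-alpha plus IFN-gamma mixture; protective hits raise ATP signal compared with cytokine alone wells.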 It is filed as functional, cell-based. The note with it: Rattus norvegicus.
Assay [12] deals with T3, Heat shock factor protein 1 (Mus musculus, UniProt P38532).
T3 sequence (P38532 whole entry): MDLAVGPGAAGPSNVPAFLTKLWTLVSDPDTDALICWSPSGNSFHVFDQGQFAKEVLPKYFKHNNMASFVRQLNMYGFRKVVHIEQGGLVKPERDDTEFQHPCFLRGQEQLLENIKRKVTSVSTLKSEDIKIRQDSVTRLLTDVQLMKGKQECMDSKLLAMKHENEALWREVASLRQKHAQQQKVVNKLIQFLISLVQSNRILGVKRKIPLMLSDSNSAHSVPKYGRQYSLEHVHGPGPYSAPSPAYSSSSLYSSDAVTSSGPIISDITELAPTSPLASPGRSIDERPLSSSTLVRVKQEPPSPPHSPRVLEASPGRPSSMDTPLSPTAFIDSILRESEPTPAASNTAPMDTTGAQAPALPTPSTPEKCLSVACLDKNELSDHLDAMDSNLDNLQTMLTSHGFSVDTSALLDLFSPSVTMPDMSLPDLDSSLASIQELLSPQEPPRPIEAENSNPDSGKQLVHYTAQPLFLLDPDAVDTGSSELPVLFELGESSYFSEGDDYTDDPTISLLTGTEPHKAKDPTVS
Nature of the assay: HSF1 potentiators in luciferase reporter cells, confirmation, cell-based, NIH3T3, luminescence, dose retest (AID 435004).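 Further: stress induced by proteasome inhibitor MG132 added 30 min after compound; luciferase reporter driven by HSF1 response element in NIH3T3 cells; actives raise luminescence as potentiators of the MG132 stress response.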 It is filed as functional.

The target of assay [13] is Heat shock protein HSP 90-alpha (Homo sapiens, UniProt P07900). It is filed as functional, organism-based.
A short description of assay [14]: microbe, parasite or virus in culture. It is filed as functional. The note with it: Mycobacterium tuberculosis.
Assay [15] is described as follows: HepG2 cell cytotoxicity, dose response, cytotoxicity control for Shn3 inhibitor project, CellTiter-Glo, cherry-picked (AID 624134). It counts as functional, cell-based.
Assay [16] deals with T4, Rac GTPase-activating protein 1 (Homo sapiens, UniProt Q9H0H5).
T4 sequence (Q9H0H5 whole entry): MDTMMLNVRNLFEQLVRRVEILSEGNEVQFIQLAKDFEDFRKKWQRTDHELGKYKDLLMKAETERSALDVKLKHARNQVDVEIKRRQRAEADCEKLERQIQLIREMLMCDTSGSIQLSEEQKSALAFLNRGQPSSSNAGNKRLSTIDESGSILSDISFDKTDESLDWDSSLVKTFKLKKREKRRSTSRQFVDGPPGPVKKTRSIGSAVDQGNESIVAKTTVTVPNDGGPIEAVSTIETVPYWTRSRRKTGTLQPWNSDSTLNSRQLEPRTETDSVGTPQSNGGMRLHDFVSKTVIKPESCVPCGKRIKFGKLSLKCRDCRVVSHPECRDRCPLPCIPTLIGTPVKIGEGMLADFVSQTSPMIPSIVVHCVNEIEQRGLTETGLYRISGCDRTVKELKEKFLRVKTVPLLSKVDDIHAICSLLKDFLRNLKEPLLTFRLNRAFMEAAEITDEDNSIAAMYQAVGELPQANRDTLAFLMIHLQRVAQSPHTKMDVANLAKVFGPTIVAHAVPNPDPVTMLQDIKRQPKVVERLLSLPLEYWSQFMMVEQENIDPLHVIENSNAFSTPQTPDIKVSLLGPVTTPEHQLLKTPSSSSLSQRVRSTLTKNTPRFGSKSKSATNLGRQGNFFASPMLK
Nature of the assay: MgcRacGAP GTPase-activating activity inhibitors, confirmation, biochemical, ADP Hunter fluorescence, primary and confirmatory (AID 624330). It is filed as functional.

The nature of assay [17]: Shn3 3'UTR reporter inhibitors, dose response, cell-based, Clone20 osteoblasts, firefly luciferase, cherry-picked (AID 624132).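 Further: firefly luciferase luminescence from reporter carrying the Shn3 3'UTR in osteoblasts.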 It counts as functional.
A short description of assay [18]: HeLa cell cytotoxicity, dose response, cytotoxicity control for MgcRacGAP inhibitor project (AID 624300). It counts as functional.
For assay [19], the target named is Beta-galactosidase (Escherichia coli, UniProt Q8VNN2). Nature of the assay: beta-galactosidase enzyme inhibitors and activators, dose response, artefact control for CCR6 antagonist project, biochemical, E. coli enzyme, set 3 (AID 504712). It counts as functional.
Assay [20] has as its target Large T antigen (Simian virus 40, UniProt P03070). It counts as functional, Betapolyomavirus macacae.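 Further: Confirmatory-stage PubChem screen for compounds that inhibit SV40 T antigen.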
The target in assay [21] is Eukaryotic translation initiation factor 4E (Mus musculus, UniProt P63073). Nature of the assay: eIF4E–eIF4G protein interaction inhibitors, dose response, biochemical, TR-FRET (AID 855).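 Further: potency for disrupting eIF4E binding to eIF4GI seen as loss of FRET.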 It is filed as functional. (In general: In TR-FRET formats the signal depends on donor and acceptor labels being close together.)
Assay [22] has as its target Glucose-6-phosphate 1-dehydrogenase (Homo sapiens, UniProt P11413). Nature of the assay: human G6PD enzyme inhibitors, dose response, selectivity assay for P. falciparum G6PD inhibitor project, biochemical, fluorescence (AID 504792). It counts as functional.
A short description of assay [23]: Luminescence Cell-Based Dose Confirmation HTS to Identify Activators of 5'UTR Stem-Loop Driven Alpha-Synuclein mRNA Translation in H4 Neuroglioblastoma Cells. [Related pubchem assays: 1829 (Project Summary), 1814 (Primary HTS)]. It is filed as functional.
For assay [24], the system named is H4. Put plainly: Luminescence Cell-Based Dose Response HTS to Identify Activators of 5'UTR Stem-Loop Driven Prion Protein mRNA Translation in H4 Neuroglioblastoma Cells. [Related pubchem assays: 1829 (Project Summary), 1814 (Primary HTS)]. It counts as functional. The note with it: Homo sapiens.
The nature of assay [25]: Luminescence Cell-Based Dose Response HTS to Identify Activators of Luciferase Translation or Activity in H4 […] Cells. [Related pubchem assays: 1829 (Project Summary), 1814 (Primary HTS)]. It counts as functional.

Sequence of G-protein coupled receptor 55 (Q9Y2T6 whole entry): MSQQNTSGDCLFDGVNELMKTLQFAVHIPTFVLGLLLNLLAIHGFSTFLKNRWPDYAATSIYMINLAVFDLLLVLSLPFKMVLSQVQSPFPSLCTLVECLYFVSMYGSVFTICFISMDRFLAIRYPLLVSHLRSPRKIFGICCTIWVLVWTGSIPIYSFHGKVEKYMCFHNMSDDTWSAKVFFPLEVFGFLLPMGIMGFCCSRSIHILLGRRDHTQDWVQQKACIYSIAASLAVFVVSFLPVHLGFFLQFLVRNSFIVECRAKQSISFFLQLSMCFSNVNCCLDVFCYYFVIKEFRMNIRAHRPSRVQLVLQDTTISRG
Sequence of DNA dC->dU-editing enzyme APOBEC-3A (P31941 whole entry): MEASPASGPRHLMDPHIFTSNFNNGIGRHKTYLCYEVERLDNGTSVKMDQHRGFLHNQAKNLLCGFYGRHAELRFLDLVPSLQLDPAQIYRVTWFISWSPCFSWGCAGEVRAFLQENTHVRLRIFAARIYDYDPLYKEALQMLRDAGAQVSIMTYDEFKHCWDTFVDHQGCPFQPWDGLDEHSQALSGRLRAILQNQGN
Sequence of DNA dC->dU-editing enzyme APOBEC-3G (Q9HC16 whole entry): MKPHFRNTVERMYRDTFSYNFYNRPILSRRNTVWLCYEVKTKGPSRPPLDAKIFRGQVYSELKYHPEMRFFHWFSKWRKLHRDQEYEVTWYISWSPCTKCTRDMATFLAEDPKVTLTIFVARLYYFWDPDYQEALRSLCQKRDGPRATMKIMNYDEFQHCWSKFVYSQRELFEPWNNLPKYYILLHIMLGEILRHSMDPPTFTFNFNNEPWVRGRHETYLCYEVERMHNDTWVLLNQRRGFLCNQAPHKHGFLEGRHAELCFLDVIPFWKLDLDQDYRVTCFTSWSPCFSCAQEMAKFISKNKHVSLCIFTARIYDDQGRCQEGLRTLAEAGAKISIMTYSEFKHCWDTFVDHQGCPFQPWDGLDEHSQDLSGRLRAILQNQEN
Sequence of Phospholipase A2 (P04054 whole entry): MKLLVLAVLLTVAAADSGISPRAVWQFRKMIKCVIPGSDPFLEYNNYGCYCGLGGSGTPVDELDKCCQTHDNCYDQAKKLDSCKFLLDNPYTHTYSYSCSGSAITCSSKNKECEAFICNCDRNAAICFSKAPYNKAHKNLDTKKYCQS
Sequence of Genome polyprotein (P29990 2492-3391 limits assumed): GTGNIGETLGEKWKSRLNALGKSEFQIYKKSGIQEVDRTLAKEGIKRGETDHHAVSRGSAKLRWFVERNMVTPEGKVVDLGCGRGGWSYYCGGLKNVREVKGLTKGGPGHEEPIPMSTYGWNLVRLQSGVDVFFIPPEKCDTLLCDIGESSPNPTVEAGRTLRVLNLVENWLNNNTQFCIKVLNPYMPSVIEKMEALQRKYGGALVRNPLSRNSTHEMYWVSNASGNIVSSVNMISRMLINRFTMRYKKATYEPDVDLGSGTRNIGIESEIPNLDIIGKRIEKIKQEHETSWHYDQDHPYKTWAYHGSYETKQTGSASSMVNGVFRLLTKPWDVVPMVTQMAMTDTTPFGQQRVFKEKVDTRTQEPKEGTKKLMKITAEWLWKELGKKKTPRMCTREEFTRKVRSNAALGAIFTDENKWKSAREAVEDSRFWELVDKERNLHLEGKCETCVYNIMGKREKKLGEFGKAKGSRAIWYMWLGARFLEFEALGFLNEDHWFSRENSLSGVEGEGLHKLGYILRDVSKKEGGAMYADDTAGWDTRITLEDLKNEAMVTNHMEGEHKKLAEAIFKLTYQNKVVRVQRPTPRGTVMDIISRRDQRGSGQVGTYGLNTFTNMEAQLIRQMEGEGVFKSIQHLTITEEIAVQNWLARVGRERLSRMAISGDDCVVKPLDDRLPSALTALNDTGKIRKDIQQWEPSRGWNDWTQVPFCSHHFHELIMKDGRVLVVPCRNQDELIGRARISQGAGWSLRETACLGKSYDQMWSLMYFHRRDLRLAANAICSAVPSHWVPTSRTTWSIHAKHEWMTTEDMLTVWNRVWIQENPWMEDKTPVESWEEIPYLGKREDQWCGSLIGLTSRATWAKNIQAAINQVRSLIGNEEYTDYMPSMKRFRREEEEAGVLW
Sequence of Glucose-6-phosphate 1-dehydrogenase (P11413 whole entry): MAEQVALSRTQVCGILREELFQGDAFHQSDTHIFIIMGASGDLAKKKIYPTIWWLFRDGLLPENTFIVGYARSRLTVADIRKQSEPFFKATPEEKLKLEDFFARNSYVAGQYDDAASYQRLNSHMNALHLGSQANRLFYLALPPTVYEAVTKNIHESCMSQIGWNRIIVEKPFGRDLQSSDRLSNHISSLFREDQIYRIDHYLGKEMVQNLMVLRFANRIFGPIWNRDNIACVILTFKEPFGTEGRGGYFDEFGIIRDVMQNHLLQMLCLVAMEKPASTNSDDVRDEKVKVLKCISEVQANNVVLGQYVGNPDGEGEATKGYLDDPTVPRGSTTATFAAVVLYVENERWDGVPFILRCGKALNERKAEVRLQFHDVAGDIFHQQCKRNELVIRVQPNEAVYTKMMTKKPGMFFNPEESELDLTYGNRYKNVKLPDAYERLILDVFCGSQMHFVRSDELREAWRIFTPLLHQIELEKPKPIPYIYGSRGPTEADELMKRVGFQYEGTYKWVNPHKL
Sequence of Eukaryotic translation initiation factor 4E (P63073 whole entry): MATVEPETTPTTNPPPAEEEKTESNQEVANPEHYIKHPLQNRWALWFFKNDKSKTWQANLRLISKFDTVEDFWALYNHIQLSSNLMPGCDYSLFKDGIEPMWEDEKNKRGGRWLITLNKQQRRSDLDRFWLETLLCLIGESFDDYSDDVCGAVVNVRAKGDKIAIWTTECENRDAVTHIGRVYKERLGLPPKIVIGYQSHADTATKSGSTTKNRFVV
Sequence of Trypsin (P00761 whole entry): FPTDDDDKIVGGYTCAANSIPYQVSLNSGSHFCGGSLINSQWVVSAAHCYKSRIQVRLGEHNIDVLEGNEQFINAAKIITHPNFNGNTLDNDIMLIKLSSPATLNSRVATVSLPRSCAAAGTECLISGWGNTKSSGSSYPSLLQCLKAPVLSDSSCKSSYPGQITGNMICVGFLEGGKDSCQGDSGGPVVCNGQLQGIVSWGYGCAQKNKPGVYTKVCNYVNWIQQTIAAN
Sequence of Large T antigen (P03070 whole entry): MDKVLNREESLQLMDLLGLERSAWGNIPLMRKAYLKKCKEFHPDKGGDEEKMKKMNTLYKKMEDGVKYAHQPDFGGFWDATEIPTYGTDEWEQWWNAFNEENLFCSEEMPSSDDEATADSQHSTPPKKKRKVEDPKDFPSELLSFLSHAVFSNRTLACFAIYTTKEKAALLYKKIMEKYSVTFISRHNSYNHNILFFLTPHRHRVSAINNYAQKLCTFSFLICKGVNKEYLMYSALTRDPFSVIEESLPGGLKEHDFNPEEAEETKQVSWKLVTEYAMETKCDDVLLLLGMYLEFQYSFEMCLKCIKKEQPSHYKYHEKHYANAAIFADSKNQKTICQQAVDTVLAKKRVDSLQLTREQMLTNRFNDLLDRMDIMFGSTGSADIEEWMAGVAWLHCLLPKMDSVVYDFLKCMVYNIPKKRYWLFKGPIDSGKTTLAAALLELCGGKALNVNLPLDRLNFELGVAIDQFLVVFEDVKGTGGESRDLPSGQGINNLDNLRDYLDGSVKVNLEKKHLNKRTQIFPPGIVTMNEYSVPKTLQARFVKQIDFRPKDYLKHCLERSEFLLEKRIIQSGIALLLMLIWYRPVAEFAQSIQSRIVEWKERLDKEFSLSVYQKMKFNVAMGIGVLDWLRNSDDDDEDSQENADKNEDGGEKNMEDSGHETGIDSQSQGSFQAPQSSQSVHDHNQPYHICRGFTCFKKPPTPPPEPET
Sequence of Beta-galactosidase (Q8VNN2 whole entry): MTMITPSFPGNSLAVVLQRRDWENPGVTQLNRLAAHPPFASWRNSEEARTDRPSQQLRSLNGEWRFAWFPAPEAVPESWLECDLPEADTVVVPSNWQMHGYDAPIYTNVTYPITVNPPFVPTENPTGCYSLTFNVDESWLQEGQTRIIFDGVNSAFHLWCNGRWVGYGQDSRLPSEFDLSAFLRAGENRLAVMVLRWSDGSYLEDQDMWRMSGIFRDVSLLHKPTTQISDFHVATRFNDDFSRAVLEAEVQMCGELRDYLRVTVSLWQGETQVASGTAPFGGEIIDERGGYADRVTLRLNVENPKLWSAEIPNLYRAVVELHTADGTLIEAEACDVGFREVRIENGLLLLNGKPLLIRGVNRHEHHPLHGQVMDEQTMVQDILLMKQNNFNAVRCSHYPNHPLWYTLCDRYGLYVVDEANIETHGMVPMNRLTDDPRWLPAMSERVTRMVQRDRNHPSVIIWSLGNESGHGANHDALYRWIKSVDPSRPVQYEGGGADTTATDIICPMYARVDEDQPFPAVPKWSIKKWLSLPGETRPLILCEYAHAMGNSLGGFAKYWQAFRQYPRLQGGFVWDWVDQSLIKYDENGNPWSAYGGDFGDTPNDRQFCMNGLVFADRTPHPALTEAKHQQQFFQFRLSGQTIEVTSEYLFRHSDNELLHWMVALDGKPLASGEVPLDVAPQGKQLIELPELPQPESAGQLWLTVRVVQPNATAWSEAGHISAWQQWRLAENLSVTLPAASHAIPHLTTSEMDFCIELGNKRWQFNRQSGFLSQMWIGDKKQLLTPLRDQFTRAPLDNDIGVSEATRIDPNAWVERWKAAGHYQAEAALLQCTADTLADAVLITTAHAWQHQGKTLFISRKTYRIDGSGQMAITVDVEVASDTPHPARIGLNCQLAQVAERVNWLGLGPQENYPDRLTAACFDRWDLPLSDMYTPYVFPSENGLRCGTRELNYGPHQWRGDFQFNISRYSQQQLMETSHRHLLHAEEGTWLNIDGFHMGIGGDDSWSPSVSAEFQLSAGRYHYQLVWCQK

In the case of `Cc1nc(SCc2ccc(F)cc2)c2oc3ccccc3c2n1`, in assay [1], the EC50 is > 32 µM (inactive).

As to `CCN(CC)S(=O)(=O)c1ccc2c(c1)nc(CCC(=O)Nc1cccc(C(F)(F)F)c1)n2CC`, the EC50 in assay [1] was 7.88 µM (active).

Take `O=C(Nc1cc(S(=O)(=O)N2CCOCC2)ccc1N1CCOCC1)c1cc2c(s1)CCC2`: the EC50 in assay [1] is 6.36 µM (active).

Turning to `O=C1CSC(c2cn(-c3ccccc3)nc2-c2cc3ccccc3oc2=O)N1Cc1ccco1` (centres undefined), the AC50 in [2] is 30.8 µM (active); in assay [3] it was 9.09 µM (active).

With `O=C(O)c1cccc(CN2C(=O)S/C(=C/c3cccc([N+](=O)[O-])c3)C2=O)c1`, the CC50 in assay [4] was > 40 µM (active). In [5], the half-inhibitory concentration (IC50) was 83.2 µM (active).

Take `CCCc1cc(-c2n[nH]c(=S)n2CC)cs1`: the values for the IC50 in [6] and in assay [7] were 6.08 µM (active) and > 100 µM (inactive), respectively.

For the compound `Nc1nn(-c2ccccc2)c(N)c1N=Nc1ccccc1`, the figures for the IC50 in assay [8] and in assay [9] were 11.9 µM (active) and 9 µM (active), respectively.

Turning to `CN(c1ccccc1)c1ccc(/C=C/[N+](=O)[O-])cc1`, the AC50 was 17.5 µM (active) in assay [10]; 6.67 µM (active) in assay [11]; 8.67 µM (active) in assay [13]; 18 µM (active) in [15]; 5.79 µM (active) in assay [17]. Moreover, the EC50 in assay [12] was 5.04 µM (inconclusive). In addition, the CC50 was 25.9 µM (active) in assay [14] and 38.5 µM (active) in [18]. For the same compound, the half-inhibitory concentration (IC50) in [16] was 23.3 µM (active); in [19], > 66.6 µM (inactive).

Regarding `CCN(CC)CCNC(=O)CCCCn1c(=S)[nH]c2c([nH]c3ccc(OC)cc32)c1=O`, the concentration for half-maximal inhibition (IC50) in assay [20] is 8.17 µM (active); in assay [21], > 64 µM (inactive); in assay [6], 2.5 µM (active); in assay [7], > 100 µM (inactive); in [22] it was > 80 µM (inactive).

Regarding `O=[N+]([O-])c1cc2c(cc1/C=N/n1c(S)nnc1-c1ccccc1)OCO2`, the values for the IC50 in [6] and in [7] were 1.89 µM (active) and > 100 µM (inactive), respectively.

As for `CC(C)(C)c1ccccc1/N=C/c1ccc2ccccc2n1`, the IC50 in [8] was 14.2 µM (active); in assay [9], 16.2 µM (active).

Consider `Clc1ccccc1-c1nc2ccccc2[nH]1`, for which the EC50 in assay [23] was 0.289 µM (active); in assay [24], 13.7 µM (active); in assay [25], 0.36 µM (active); in assay [1], 2.24 µM (active).
